Measurements taken from PubChem BioAssay (NCI).
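GI50: concentration for 50% inhibition of growth. TGI marks complete inhibition of growth.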

Legend:
Experiment in all cases: inhibition of tumour cell growth, NCI panel, 384-well format
SK-MEL-28 melanoma = system: SK-MEL-28 melanoma
K-562 leukemia = system: K-562 leukemia
MDA-MB-468 breast = system: MDA-MB-468 breast
M14 melanoma = system: M14 melanoma
SF-268 CNS = system: SF-268 CNS
HOP-62 NSCLC = system: HOP-62 NSCLC
CAKI-1 renal = system: CAKI-1 renal
HCT-116 colon = system: HCT-116 colon
MOLT-4 leukemia = system: MOLT-4 leukemia
NCI/ADR-RES ovarian = system: NCI/ADR-RES ovarian
RPMI-8226 leukemia = system: RPMI-8226 leukemia
SN12C renal = system: SN12C renal
NCI-H226 lung = system: NCI-H226 lung
T-47D breast = system: T-47D breast
RXF 393 renal = system: RXF 393 renal
HCT-15 colon = system: HCT-15 colon
NCI-H522 lung = system: NCI-H522 lung
TK-10 renal = system: TK-10 renal
SF-539 CNS = system: SF-539 CNS
COLO 205 colon = system: COLO 205 colon
SW-620 colon = system: SW-620 colon
UACC-62 melanoma = system: UACC-62 melanoma
HCC-2998 colon = system: HCC-2998 colon
HL-60(TB) leukemia = system: HL-60(TB) leukemia
MDA-MB-231 breast = system: MDA-MB-231 breast
IGROV1 ovarian = system: IGROV1 ovarian
U251 glioblastoma = system: U251 glioblastoma
786-0 renal = system: 786-0 renal
SNB-75 CNS = system: SNB-75 CNS
NCI-H23 lung = system: NCI-H23 lung
PC-3 prostate = system: PC-3 prostate
A498 renal = system: A498 renal
UACC-257 melanoma = system: UACC-257 melanoma
OVCAR-4 ovarian = system: OVCAR-4 ovarian
EKVX NSCLC = system: EKVX NSCLC
MDA-MB-435 melanoma = system: MDA-MB-435 melanoma
OVCAR-5 ovarian = system: OVCAR-5 ovarian
HS 578T breast = system: HS 578T breast
NCI-H460 NSCLC = system: NCI-H460 NSCLC
OVCAR-3 ovarian = system: OVCAR-3 ovarian
NCI-H322M lung = system: NCI-H322M lung
A549 NSCLC = system: A549 NSCLC
HT29 colon = system: HT29 colon
LOX IMVI melanoma = system: LOX IMVI melanoma
HOP-92 NSCLC = system: HOP-92 NSCLC
MCF7 breast = system: MCF7 breast
SK-MEL-5 melanoma = system: SK-MEL-5 melanoma
KM12 colon = system: KM12 colon
MALME-3M melanoma = system: MALME-3M melanoma
ACHN renal = system: ACHN renal
SF-295 CNS = system: SF-295 CNS
OVCAR-8 ovarian = system: OVCAR-8 ovarian
SK-OV-3 ovarian = system: SK-OV-3 ovarian
SNB-19 CNS = system: SNB-19 CNS
UO-31 renal = system: UO-31 renal
DU-145 prostate = system: DU-145 prostate
CCRF-CEM leukemia = system: CCRF-CEM leukemia
BT-549 breast = system: BT-549 breast

COc1cc(C(=O)N[C@@H]2CCCN(C)C2)ccc1Nc1ncc2c(n1)N(C1CCCC1)CC(C)(C)C(=O)N2C
GI50 (SK-MEL-28 melanoma): 128 nM
TGI (SK-MEL-28 melanoma): 911 nM
GI50 (K-562 leukemia): 19.1 nM
TGI (K-562 leukemia): 55.4 nM
TGI (MDA-MB-468 breast): 16.3 nM
GI50 (M14 melanoma): 27.3 nM
TGI (M14 melanoma): 136 nM
GI50 (SF-268 CNS): 10.5 nM
TGI (SF-268 CNS): 47 nM
GI50 (HOP-62 NSCLC): 31.7 nM
TGI (HOP-62 NSCLC): 598 nM
GI50 (CAKI-1 renal): 395 nM
TGI (CAKI-1 renal): 2640 nM
GI50 (HCT-116 colon): 39.4 nM
TGI (HCT-116 colon): 705 nM
GI50 (MOLT-4 leukemia): 13.3 nM
TGI (MOLT-4 leukemia): 26.4 nM
GI50 (NCI/ADR-RES ovarian): 695 nM
TGI (NCI/ADR-RES ovarian): 2340 nM
GI50 (RPMI-8226 leukemia): 31.6 nM
TGI (RPMI-8226 leukemia): 101 nM
GI50 (SN12C renal): 94.2 nM
TGI (SN12C renal): 2210 nM
GI50 (NCI-H226 lung): 1620 nM
TGI (NCI-H226 lung): 12000 nM
GI50 (T-47D breast): 81.5 nM
TGI (T-47D breast): 892 nM
GI50 (RXF 393 renal): 20 nM
TGI (RXF 393 renal): 61.4 nM
GI50 (HCT-15 colon): 69.6 nM
TGI (HCT-15 colon): 334 nM
GI50 (NCI-H522 lung): 17.1 nM
TGI (NCI-H522 lung): 37.5 nM
GI50 (TK-10 renal): 1170 nM
TGI (TK-10 renal): 4970 nM
GI50 (SF-539 CNS): 36 nM
TGI (SF-539 CNS): 267 nM
GI50 (COLO 205 colon): 19.5 nM
TGI (COLO 205 colon): 71.4 nM
GI50 (SW-620 colon): 20.5 nM
TGI (SW-620 colon): 114 nM
GI50 (UACC-62 melanoma): 33.7 nM
TGI (UACC-62 melanoma): 252 nM
GI50 (HCC-2998 colon): 21.8 nM
TGI (HCC-2998 colon): 94.2 nM
GI50 (HL-60(TB) leukemia): 14.3 nM
TGI (HL-60(TB) leukemia): 28.3 nM
GI50 (MDA-MB-231 breast): 41.8 nM
TGI (MDA-MB-231 breast): 2220 nM
GI50 (IGROV1 ovarian): 45.7 nM
TGI (IGROV1 ovarian): 1670 nM
GI50 (U251 glioblastoma): 46.7 nM
TGI (U251 glioblastoma): 1440 nM
GI50 ([…]-0 renal): 63.8 nM
TGI (786-0 renal): 1440 nM
GI50 (SNB-75 CNS): 285 nM
TGI (SNB-75 CNS): 2610 nM
GI50 (NCI-H23 lung): 17.6 nM
TGI (NCI-H23 lung): 52.6 nM
GI50 (PC-3 prostate): 62.1 nM
TGI (PC-3 prostate): 2620 nM
GI50 (A498 renal): 206 nM
TGI (A498 renal): 1850 nM
GI50 (UACC-257 melanoma): 40.8 nM
TGI (UACC-257 melanoma): 612 nM
GI50 (OVCAR-4 ovarian): 1110 nM
TGI (OVCAR-4 ovarian): 2780 nM
GI50 (EKVX NSCLC): 119 nM
TGI (EKVX NSCLC): 1880 nM
GI50 (MDA-MB-435 melanoma): 19 nM
TGI (MDA-MB-435 melanoma): 40.6 nM
GI50 (OVCAR-5 ovarian): 35.9 nM
TGI (OVCAR-5 ovarian): 1220 nM
GI50 (HS 578T breast): 16.9 nM
TGI (HS 578T breast): 89 nM
GI50 (NCI-H460 NSCLC): 21.7 nM
TGI (NCI-H460 NSCLC): 47.9 nM
GI50 (OVCAR-3 ovarian): 18.1 nM
TGI (OVCAR-3 ovarian): 47.9 nM
GI50 (NCI-H322M lung): 510 nM
TGI (NCI-H322M lung): 3730 nM
GI50 (A549 NSCLC): 38.7 nM
TGI (A549 NSCLC): 1090 nM
GI50 (HT29 colon): 21.2 nM
TGI (HT29 colon): 68.1 nM
GI50 (LOX IMVI melanoma): 34.1 nM
TGI (LOX IMVI melanoma): 201 nM
GI50 (HOP-92 NSCLC): 88.1 nM
TGI (HOP-92 NSCLC): 989 nM
GI50 (MCF7 breast): 28.9 nM
TGI (MCF7 breast): 1300 nM
GI50 (SK-MEL-5 melanoma): 25.3 nM
TGI (SK-MEL-5 melanoma): 133 nM
GI50 (KM12 colon): 17 nM
TGI (KM12 colon): 1050 nM
GI50 (MALME-3M melanoma): 45.9 nM
TGI (MALME-3M melanoma): 251 nM
GI50 (ACHN renal): 541 nM
TGI (ACHN renal): 2230 nM
GI50 (SF-295 CNS): 38.6 nM
TGI (SF-295 CNS): 196 nM
GI50 (OVCAR-8 ovarian): 22.3 nM
TGI (OVCAR-8 ovarian): 53.9 nM
GI50 (SK-OV-3 ovarian): 45.6 nM
TGI (SK-OV-3 ovarian): 1200 nM
GI50 (SNB-19 CNS): 50.1 nM
TGI (SNB-19 CNS): 1850 nM
GI50 (UO-31 renal): 345 nM
TGI (UO-31 renal): 1390 nM
GI50 (DU-145 prostate): 35.1 nM
TGI (DU-145 prostate): 206 nM
TGI (CCRF-CEM leukemia): 21.3 nM
GI50 (BT-549 breast): 43.2 nM
TGI (BT-549 breast): 309 nM
